Test results published in patent US8895585B2, “Nicotinamide derivative or salt thereof” (FUJIFILM Corporation, priority 2010, dated 2014).

Key:
[1] = target: T1, glutathione S-transferase (GST)-fused full-length human Syk protein (Homo sapiens, UniProt P43405); experiment: Syk enzyme assay; format: biochemical; conditions: Syk enzyme assay, Test Example 1; read-out: IC50 of Syk-inhibitory activity
T1 construct: (GST)-fused full-length human Syk protein; GST (glutathione S-transferase); purchased Carna Biosciences
Summary of the method: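 GST-tagged full-length human Syk (baculovirus) preincubated with compound 15 min at room temperature (pH 7.0, 10 mM MgCl2), then reacted 40 min with 0.4 μM biotinylated peptide substrate and 27 μM ATP (final). Phosphorylation read by HTRF (615/665 nm) after EDTA stop; IC50 reported.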

THP-1 cells = experiment: TNFα generation assay; format: cell-based, human; conditions: Homo sapiens, THP-1, THP-1 cells; Table 22; read-out: IC50 in TNFα generation assay
Summary of the method: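 Secreted TNFα in supernatant quantified by ELISA or AlphaLISA after 7 h culture on human IgG-coated wells (10 μg/ml coating). Cells were IFN-γ-differentiated THP-1 (10 ng/ml, 2 days), exposed to compound for 30 min at room temperature before plating.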

Row | Structure (SMILES) | IC50 [1] [nM] | IC50 (THP-1 cells) [nM]
1 | C[C@@H](N)[C@@H](C)Nc1nc(Nc2ccc3ncccc3c2)c(C(N)=O)cc1F [Example 006-224, 6-(((2R,3R)-3-aminobutan-2-yl)amino)-5-fluoro-2-((quinolin-6-yl)amino)nicotinamide] | 10 to 50 | < 65
2 | Cc1ccc(Nc2nc(N[C@@H](CN)CC(C)C)c(F)cc2C(N)=O)cn1 [Example 006-233, (R)-6-((1-amino-4-methylpentan-2-yl)amino)-5-fluoro-2-((6-methylpyridin-3-yl)amino)nicotinamide] | 10 to 50 | 130 to 200
3 | CCC[C@@H](Nc1nc(Nc2ccc3nccnc3c2)c(C(N)=O)cc1F)[C@H](C)N [Example 006-240, 6-(((2S,3R)-2-aminohexan-3-yl)amino)-5-fluoro-2-((quinoxalin-6-yl)amino)nicotinamide] | < 10 | < 65
4 | CCC[C@@H](Nc1nc(Nc2cncc3ccccc23)c(C(N)=O)cc1F)[C@H](C)N [Example 006-241, 6-(((2S,3R)-2-aminohexan-3-yl)amino)-5-fluoro-2-((isoquinolin-4-yl)amino)nicotinamide] | < 10 | 65 to 130
5 | CCC[C@@H](Nc1nc(Nc2cnc3ccc(OC)cc3c2)c(C(N)=O)cc1F)[C@H](C)N [Example 006-242, 6-(((2S,3R)-2-aminohexan-3-yl)amino)-5-fluoro-2-((6-methoxyquinolin-3-yl)amino)nicotinamide] | < 10 | 65 to 130
6 | CCC[C@@H](Nc1nc(Nc2ccc3cccnc3c2)c(C(N)=O)cc1F)[C@H](C)N [Example 006-244, 6-(((2S,3R)-2-aminohexan-3-yl)amino)-5-fluoro-2-((quinolin-7-yl)amino)nicotinamide] | < 10 | 65 to 130
7 | CCC[C@@H](Nc1nc(Nc2ccc3nc(C)cnc3c2)c(C(N)=O)cc1F)[C@H](C)N [Example 006-245, 6-(((2S,3R)-2-aminohexan-3-yl)amino)-5-fluoro-2-((2-methylquinoxalin-6-yl)amino)nicotinamide] | < 10 | 65 to 130
8 | CCC[C@@H](Nc1nc(Nc2cncc(-c3ccccc3)c2)c(C(N)=O)cc1F)[C@H](C)N [Example 006-247, 6-(((2S,3R)-2-aminohexan-3-yl)amino)-5-fluoro-2-((5-phenylpyridin-3-yl)amino)nicotinamide] | < 10 | 130 to 200
9 | CCC[C@@H](Nc1nc(Nc2cc(OC)nc(OC)c2)c(C(N)=O)cc1F)[C@H](C)N [Example 006-248, 6-(((2S,3R)-2-aminohexan-3-yl)amino)-2-((2,6-dimethoxypyridin-4-yl)amino)-5-fluoronicotinamide] | < 10 | 65 to 130
10 | CCC[C@@H](Nc1nc(Nc2cnc(C)c(C3CC3)c2)c(C(N)=O)cc1F)[C@H](C)N [Example 006-250, 6-(((2S,3R)-2-aminohexan-3-yl)amino)-2-((5-cyclopropyl-6-methylpyridin-3-yl)amino)-5-fluoronicotinamide] | < 10 | 130 to 200
11 | CCC[C@@H](Nc1nc(Nc2cccc3c2cnn3C)c(C(N)=O)cc1F)[C@H](C)N [Example 006-251, 6-(((2S,3R)-2-aminohexan-3-yl)amino)-5-fluoro-2-((1-methyl-1H-indazol-4-yl)amino)nicotinamide] | < 10 | < 65
12 | CCC[C@@H](Nc1nc(Nc2cnc(C)c(-n3nccn3)c2)c(C(N)=O)cc1F)[C@H](C)N [Example 006-252, 6-(((2S,3R)-2-aminohexan-3-yl)amino)-5-fluoro-2-((6-methyl-5-(2H-1,2,3-triazol-2-yl)pyridin-3-yl)amino)nicotinamide] | < 10 | 65 to 130
13 | CCC[C@@H](Nc1nc(Nc2cnc(OC)c(-n3nccn3)c2)c(C(N)=O)cc1F)[C@H](C)N [Example 006-253, 6-(((2S,3R)-2-aminohexan-3-yl)amino)-5-fluoro-2-((6-methoxy-5-(2H-1,2,3-triazol-2-yl)pyridin-3-yl)amino)nicotinamide] | 10 to 50 | 130 to 200
14 | CC[C@@H](Nc1nc(Nc2cncc(C3CC3)c2)c(C(N)=O)cc1F)[C@H](C)N [Example 006-255, 6-(((2S,3R)-2-aminopentan-3-yl)amino)-2-((5-cyclopropylpyridin-3-yl)amino)-5-fluoronicotinamide] | < 10 | 65 to 130
15 | CC[C@@H](Nc1nc(Nc2ccnc(-c3ccco3)c2)c(C(N)=O)cc1F)[C@H](C)N [Example 006-256, 6-(((2S,3R)-2-aminopentan-3-yl)amino)-5-fluoro-2-((2-(furan-2-yl)pyridin-4-yl)amino)nicotinamide] | < 10 | 65 to 130
16 | CC[C@@H](Nc1nc(Nc2cccc3cccnc23)c(C(N)=O)cc1F)[C@H](C)N [Example 006-258, 6-(((2S,3R)-2-aminopentan-3-yl)amino)-5-fluoro-2-((quinolin-8-yl)amino)nicotinamide] | 50 to 100 | 130 to 200
17 | CC[C@@H](Nc1nc(Nc2cnc3cc(OCCOC)ccc3c2)c(C(N)=O)cc1F)[C@H](C)N [Example 006-259, 6-(((2S,3R)-2-aminopentan-3-yl)amino)-5-fluoro-2-((7-(2-methoxyethoxy)quinolin-3-yl)amino)nicotinamide] | < 10 | < 65
18 | CC[C@@H](Nc1nc(Nc2ccc3nccnc3c2)c(C(N)=O)cc1F)[C@H](C)N [Example 006-260, 6-(((2S,3R)-2-aminopentan-3-yl)amino)-5-fluoro-2-((quinoxalin-6-yl)amino)nicotinamide] | < 10 | < 65
19 | CC[C@@H](Nc1nc(Nc2ccc3cccnc3c2)c(C(N)=O)cc1F)[C@H](C)N [Example 006-261, 6-(((2S,3R)-2-aminopentan-3-yl)amino)-5-fluoro-2-((quinolin-7-yl)amino)nicotinamide] | < 10 | < 65
20 | CC[C@@H](Nc1nc(Nc2cncc3ccccc23)c(C(N)=O)cc1F)[C@H](C)N [Example 006-262, 6-(((2S,3R)-2-aminopentan-3-yl)amino)-5-fluoro-2-((isoquinolin-4-yl)amino)nicotinamide] | < 10 | < 65
21 | CC[C@@H](Nc1nc(Nc2cnc3ccc(OC)cc3c2)c(C(N)=O)cc1F)[C@H](C)N [Example 006-264, 6-(((2S,3R)-2-aminopentan-3-yl)amino)-5-fluoro-2-((6-methoxyquinolin-3-yl)amino)nicotinamide] | < 10 | < 65

Second part, the compound after the results:

Row | IC50 [1] [nM] | IC50 (THP-1 cells) [nM] | Structure (SMILES)
22 | < 10 | 65 to 130 | CC(C)C[C@H](CN)Nc1nc(Nc2ccc3cnn(C)c3c2)c(C(N)=O)cc1F [Example 006-226, (R)-6-((1-amino-4-methylpentan-2-yl)amino)-5-fluoro-2-((1-methyl-1H-indazol-6-yl)amino)nicotinamide]
23 | < 10 | 130 to 200 | CC(C)C[C@H](CN)Nc1nc(Nc2cccc3c2cnn3C)c(C(N)=O)cc1F [Example 006-227, (R)-6-((1-amino-4-methylpentan-2-yl)amino)-5-fluoro-2-((1-methyl-1H-indazol-4-yl)amino)nicotinamide]
24 | < 10 | 130 to 200 | CC(C)C[C@H](CN)Nc1nc(Nc2ccc3cccnc3c2)c(C(N)=O)cc1F [Example 006-228, (R)-6-((1-amino-4-methylpentan-2-yl)amino)-5-fluoro-2-((quinolin-7-yl)amino)nicotinamide]
25 | < 10 | 65 to 130 | CC(C)C[C@H](CN)Nc1nc(Nc2cccc3ncccc23)c(C(N)=O)cc1F [Example 006-229, (R)-6-((1-amino-4-methylpentan-2-yl)amino)-5-fluoro-2-((quinolin-5-yl)amino)nicotinamide]
26 | < 10 | 130 to 200 | COc1ccc2ncc(Nc3nc(N[C@@H](CN)CC(C)C)c(F)cc3C(N)=O)cc2c1 [Example 006-232, (R)-6-((1-amino-4-methylpentan-2-yl)amino)-5-fluoro-2-((6-methoxyquinolin-3-yl)amino)nicotinamide]
27 | < 10 | 65 to 130 | COc1cc(Nc2nc(N[C@@H](CN)CC(C)C)c(F)cc2C(N)=O)ccn1 [Example 006-234, (R)-6-((1-amino-4-methylpentan-2-yl)amino)-5-fluoro-2-((2-methoxypyridin-4-yl)amino)nicotinamide]
28 | < 10 | < 65 | CCC[C@@H](Nc1nc(Nc2ccc3c(cnn3C)c2)c(C(N)=O)cc1F)[C@H](C)N [Example 006-236, 6-(((2S,3R)-2-aminohexan-3-yl)amino)-5-fluoro-2-((1-methyl-1H-indazol-5-yl)amino)nicotinamide]
29 | < 10 | < 65 | CCC[C@@H](Nc1nc(Nc2ccc3c(cnn3CC)c2)c(C(N)=O)cc1F)[C@H](C)N [Example 006-237, 6-(((2S,3R)-2-aminohexan-3-yl)amino)-2-((1-ethyl-1H-indazol-5-yl)amino)-5-fluoronicotinamide]
30 | < 10 | < 65 | CCC[C@@H](Nc1nc(Nc2cnc3cc(OCCOC)ccc3c2)c(C(N)=O)cc1F)[C@H](C)N [Example 006-238, 6-(((2S,3R)-2-aminohexan-3-yl)amino)-5-fluoro-2-((7-(2-methoxyethoxy)quinolin-3-yl)amino)nicotinamide]
31 | < 10 | < 65 | CCC[C@@H](Nc1nc(Nc2ccc3c(OC)nccc3c2)c(C(N)=O)cc1F)[C@H](C)N [Example 006-239, 6-(((2S,3R)-2-aminohexan-3-yl)amino)-5-fluoro-2-((1-methoxyisoquinolin-6-yl)amino)nicotinamide]
